Assay results taken from ChEMBL document CHEMBL1151366, “Potential Anticancer Agents. XVIII. Constituents of Amyris pinnata” (1981).
≈ marks a conversion by molar mass, not a printed value. Calls of active or inactive are those of the source. No cut-off for these calls is given here.

Columns and labels:
[1] = Cytotoxicity against human 9KB cells; type: functional; details: read-out: ED50 (the source's name)
P388 = assay: In vivo antitumor activity against mouse P388 cells at 7.5 mg/kg relative to control; type: functional
B16 = assay: In vivo antitumor activity against mouse B16 cells at 1.5 to 12.0 mg/kg relative to control; type: functional, organism-based

Compound | EC50 [1] [µg/mL] | T/C (P388) [%] | Activity (B16)
COc1cc([C@@H]2c3cc4c(cc3C[C@H]3COC(=O)[C@@H]32)OCO4)cc2c1OCO2 [AUSTROBAILIGNAN 1] | 0.027 (≈ 0.0706 µM) | 125 | inactive
CC[C@H](CC[C@@H](C)[C@H]1CC[C@H]2[C@@H]3CC=C4C[C@@H](O)CC[C@]4(C)[C@H]3CC[C@]12C)C(C)C [BETA-SITOSTEROL] | 22 (≈ 53 µM) |  | 
CC(C)(O)[C@H](O)COc1c2occc2cc2ccc(=O)oc12 [HERACLENOL] | > 100 |  | 
CC(C)=CCOc1c2occc2cc2ccc(=O)oc12 [PENTOSALEN] | 33 (≈ 122 µM) |  | 
COc1c2ccoc2c(OCC=C(C)C)c2oc(=O)ccc12 [PHELLOPTERIN] | 7.2 (≈ 24 µM) |  | 
O=C1OC[C@H](Cc2ccc3c(c2)OCO3)/C1=C\c1ccc2c(c1)OCO2 [SAVININ] | 22 (≈ 62.4 µM) |  | 
COc1cc2ccc(=O)oc2cc1O [SCOPOLETIN] | 2.9 (≈ 15.1 µM) |  | 
CC1(C)C=Cc2c(ccc3ccc(=O)oc23)O1 [SESALIN] | 31 (≈ 136 µM) |  | 
O=C1OCC(C(O)c2ccc3c(c2)OCO3)C1Cc1ccc2c(c1)OCO2 (stereo unspecified) [SVENTENIN] | 23 (≈ 62.1 µM) |  | 
